The values below come from paper PMC9795544, “Identifying Novel Inhibitors for Hepatic Organic Anion Transporting Polypeptides by Machine Learning-Based Virtual Screening” (Journal of Chemical Information and Modeling, 2022).

As a reminder, the IC50 is the concentration that gives 50% inhibition.

For data set [1], the target named is T1, OATP2B1 (Homo sapiens, UniProt O94956).
T1 construct: expressed in transfected cells; host or cells: A431 cells
T1 sequence (O94956 1-709): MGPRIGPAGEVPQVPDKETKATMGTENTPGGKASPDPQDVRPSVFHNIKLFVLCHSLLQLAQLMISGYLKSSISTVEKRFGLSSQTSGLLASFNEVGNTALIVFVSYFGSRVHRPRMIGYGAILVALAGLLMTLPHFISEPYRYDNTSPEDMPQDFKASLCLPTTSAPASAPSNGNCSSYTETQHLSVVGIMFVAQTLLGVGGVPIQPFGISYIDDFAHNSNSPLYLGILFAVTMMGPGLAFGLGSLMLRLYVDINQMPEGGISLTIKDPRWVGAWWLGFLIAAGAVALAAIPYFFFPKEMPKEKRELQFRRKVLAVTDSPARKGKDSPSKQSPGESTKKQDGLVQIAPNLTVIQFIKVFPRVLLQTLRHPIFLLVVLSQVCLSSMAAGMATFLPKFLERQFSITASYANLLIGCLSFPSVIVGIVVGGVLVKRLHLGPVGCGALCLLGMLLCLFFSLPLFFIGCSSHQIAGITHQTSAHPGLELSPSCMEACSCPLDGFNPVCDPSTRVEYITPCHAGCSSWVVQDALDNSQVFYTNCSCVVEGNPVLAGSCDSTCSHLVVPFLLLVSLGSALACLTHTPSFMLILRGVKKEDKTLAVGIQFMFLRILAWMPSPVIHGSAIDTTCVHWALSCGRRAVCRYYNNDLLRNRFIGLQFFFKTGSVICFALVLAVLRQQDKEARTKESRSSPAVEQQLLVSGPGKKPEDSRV
Briefly: Pyranine transport inhibition in A431 cells overexpressing OATP2B1. As to conditions: read-out: IC50 (μM) OATP2B1. The data set is classed as cell-based. The method in brief:
(§1)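 A431 cells overexpressing the OATP, with mock-transfected controls, incubated at 37 °C with pyranine: 10 μM and 15 min for OATP1B1, 20 μM and 15 min for OATP2B1, 20 μM and 30 min for OATP1B3. Fluorescence read at 460/510 nm. Mock signal subtracted and normalized to the no-compound signal.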

In data set [2] the target is T2, OATP1B1 (Homo sapiens, UniProt Q9Y6L6).
T2 construct: expressed in transfected cells; host or cells: A431 cells
T2 sequence (Q9Y6L6 1-691): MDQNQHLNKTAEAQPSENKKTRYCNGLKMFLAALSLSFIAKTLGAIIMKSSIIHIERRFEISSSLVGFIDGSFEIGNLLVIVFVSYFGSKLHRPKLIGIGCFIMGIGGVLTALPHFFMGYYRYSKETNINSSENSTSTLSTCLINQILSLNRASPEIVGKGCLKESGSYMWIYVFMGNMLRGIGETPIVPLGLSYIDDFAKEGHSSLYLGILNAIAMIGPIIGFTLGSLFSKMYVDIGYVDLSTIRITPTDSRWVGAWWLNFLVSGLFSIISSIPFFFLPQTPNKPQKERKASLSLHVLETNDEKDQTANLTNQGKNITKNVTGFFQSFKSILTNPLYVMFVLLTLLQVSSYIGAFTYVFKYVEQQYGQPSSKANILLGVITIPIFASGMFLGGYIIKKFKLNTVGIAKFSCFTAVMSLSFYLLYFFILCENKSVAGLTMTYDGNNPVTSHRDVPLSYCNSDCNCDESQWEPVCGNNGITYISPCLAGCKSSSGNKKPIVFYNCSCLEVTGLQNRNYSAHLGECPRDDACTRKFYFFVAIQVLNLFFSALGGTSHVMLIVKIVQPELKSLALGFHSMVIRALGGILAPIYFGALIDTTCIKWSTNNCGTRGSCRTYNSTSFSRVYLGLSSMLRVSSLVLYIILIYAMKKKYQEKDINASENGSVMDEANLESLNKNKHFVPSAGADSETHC
Briefly: Pyranine transport inhibition in A431 cells overexpressing OATP1B1. The data set is classed as cell-based. The method in brief: as §1

For data set [3], the target named is T3, OATP1B3 (Homo sapiens, UniProt Q9NPD5).
T3 construct: expressed in transfected cells; host or cells: A431 cells
T3 sequence (Q9NPD5 1-702): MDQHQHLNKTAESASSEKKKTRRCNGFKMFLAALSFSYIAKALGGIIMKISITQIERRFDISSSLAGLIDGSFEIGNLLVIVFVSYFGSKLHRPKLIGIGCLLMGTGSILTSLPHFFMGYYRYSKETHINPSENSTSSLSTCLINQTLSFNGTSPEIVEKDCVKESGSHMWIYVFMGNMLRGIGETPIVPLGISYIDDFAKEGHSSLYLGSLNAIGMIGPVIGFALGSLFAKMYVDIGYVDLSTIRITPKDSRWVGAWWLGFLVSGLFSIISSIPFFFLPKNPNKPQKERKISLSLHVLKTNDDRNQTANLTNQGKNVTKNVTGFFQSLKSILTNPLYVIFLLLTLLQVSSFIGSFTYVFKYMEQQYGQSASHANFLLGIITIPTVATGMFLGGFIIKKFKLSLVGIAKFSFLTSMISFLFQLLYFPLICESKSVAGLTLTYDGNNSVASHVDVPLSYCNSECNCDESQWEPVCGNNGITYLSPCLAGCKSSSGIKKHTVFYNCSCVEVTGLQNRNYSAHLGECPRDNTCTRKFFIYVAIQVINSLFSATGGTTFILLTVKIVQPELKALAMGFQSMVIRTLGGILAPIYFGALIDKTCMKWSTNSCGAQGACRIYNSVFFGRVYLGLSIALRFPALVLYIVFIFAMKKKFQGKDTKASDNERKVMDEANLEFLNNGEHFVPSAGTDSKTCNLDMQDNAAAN
As to the kind of experiment: Pyranine transport inhibition in A431 cells overexpressing OATP1B3. The data set is classed as cell-based. The method in brief:
as §1

In data set [4] the test system is OATP2B1. Further details: method as in earlier work. As to conditions: ref 1 (Karlgren et al.); cited from earlier work.
The test system of data set [5] is OATP2B1. Also on record: method as in PMID 33932771. As to conditions: highest affinity inhibitor reported in the literature; cited from earlier work.
The test system of data set [6] is OATP1B1. Also on record: method as in earlier work. As to conditions: ref 1 (Karlgren et al.); cited from earlier work.
Setting [7] is: initial three-point screen (1, 10, 100 μM), category by concentration needed for 50% inhibition, pyranine 20 μM, 15 min, pH 5.5.

Like-named read-outs stand apart in the source and are kept apart here.

Take `COC(=O)c1c(NC(=O)CN2C(=O)NC3(CCc4ccccc4C3)C2=O)sc2c1CCCCC2` (stereo not shown) [H5, COC(=O)c1c2CCCCCc2sc1NC(=O)CN3C(=O)NC4(CCc5ccccc5C4)C3=O]: the IC50 in data set [1] (full dose-response curve, eight concentrations, Hill1 fit) is 0.39 µM; in data set [1] (setting [7]) it was less than 1 µM; in data set [2] (full dose-response curve, eight concentrations, Hill1 fit, read-out: IC50 (μM) OATP1B1), roughly 25 µM; in data set [3] (full dose-response curve, eight concentrations, Hill1 fit, read-out: IC50 (μM) OATP1B3) it was 6.95 µM. The IC50 at 15 min in data set [2] (human, pH 5.5, probe pyranine 10 μM, initial three-point screen (1, 10, 100 μM), category by concentration needed for 50% inhibition, pyranine 10 μM, 15 min, pH 5.5, read-out: IC50 (μM) OATP1B1) was greater than 10 µM. This compound came in with a half-maximal inhibitory concentration (IC50) at 30 min in data set [3] (human, pH 5.5, probe pyranine 20 μM, initial three-point screen (1, 10, 100 μM), category by concentration needed for 50% inhibition, pyranine 20 μM, 30 min, pH 5.5) greater than 10 µM. In addition, in data set [3] (ratio of IC50 OATP1B3 / OATP2B1), the “fold lower affinity on OATP1B3 than on OATP2B1” value came out at 18 fold.
In the case of `CC(=O)Nc1ccc(S(=O)(=O)Nc2nc3ccccc3nc2NCc2ccccc2)cc1` [H6, CC(=O)Nc1ccc(cc1)S(=O)(=O)Nc2nc3ccccc3nc2NCc4ccccc4], in data set [1] (setting [7]), the IC50 is greater than 10 µM. Moreover, the “IC50 (μM) OATP1B1” value in data set [2] (initial three-point screen (1, 10, 100 μM), category by concentration needed for 50% inhibition, pyranine 10 μM, 15 min, pH 5.5) is recorded as “no effect”. For the same compound, in data set [3] (initial three-point screen (1, 10, 100 μM), category by concentration needed for 50% inhibition, pyranine 20 μM, 30 min, pH 5.5), the “IC50 (μM) OATP1B3” value was “no effect”.
Regarding `C#Cc1cccc(Nc2ncnc3cc(OCCOC)c(OCCOC)cc23)c1` [erlotinib], the IC50 in data set [4] was 0.55 µM.
For `C[C@]12CC[C@@H]3c4cc(P(=O)(O)O)ccc4CC[C@H]3[C@@H]1CCC2=O` [estra-1,3,5(10)-trien-17-on-2-ylphosphonate], the IC50 in data set [5] was 0.041 µM.
With `CC[C@H](C)C(=O)O[C@H]1C[C@H](O)C=C2C=C[C@H](C)[C@H](CC[C@@H](O)C[C@@H](O)CC(=O)O)[C@H]21` [pravastatin], in data set [6], the half-inhibitory concentration (IC50) was 3.6 µM.
